Active and inactive are the calls of the source. The rule behind the calls is not given here.
Test system: CCRIS mutagenicity, Ames/micronucleus/aberration tests
Test: CCRIS mutagenicity studies
[1] = Test System: AMES SALMONELLA TYPHIMURIUM, Strain/Indicator: TA98, Metabolic Activation: NONE, Method: STANDARD PLATE
[2] = Test System: AMES SALMONELLA TYPHIMURIUM, Strain/Indicator: TA100, Metabolic Activation: NONE, Method: STANDARD PLATE
[3] = Test System: AMES SALMONELLA TYPHIMURIUM, Strain/Indicator: TA98, Metabolic Activation: NONE, Method: PREINCUBATION
[4] = Test System: AMES SALMONELLA TYPHIMURIUM, Strain/Indicator: TA100, Metabolic Activation: NONE, Method: PREINCUBATION

## O[C@@H]1[C@@H]2O[C@@H]2c2c(cc3ccc4cccc5c6ccccc6c2c3c45)[C@H]1O
Test System: AMES SALMONELLA TYPHIMURIUM, Strain/Indicator: TA97, Metabolic Activation: NONE, Method: PREINCUBATION (EXPOSURE IN MEDIUM WITH KCL)
  mutagenic call: active; positive
Test System: AMES SALMONELLA TYPHIMURIUM, Strain/Indicator: TA97, Metabolic Activation: NONE, Method: PREINCUBATION (EXPOSURE IN MEDIUM WITHOUT KCL)
  mutagenic call: active; positive
Test System: AMES SALMONELLA TYPHIMURIUM, Strain/Indicator: TA98, Metabolic Activation: NONE, Method: PREINCUBATION (EXPOSURE IN MEDIUM WITH KCL)
  mutagenic call: active; positive
Test System: AMES SALMONELLA TYPHIMURIUM, Strain/Indicator: TA98, Metabolic Activation: NONE, Method: PREINCUBATION (EXPOSURE IN MEDIUM WITHOUT KCL)
  mutagenic call: active; positive
Test System: AMES SALMONELLA TYPHIMURIUM, Strain/Indicator: TA100, Metabolic Activation: NONE, Method: PREINCUBATION (EXPOSURE IN MEDIUM WITH KCL)
  mutagenic call: active; positive
Test System: AMES SALMONELLA TYPHIMURIUM, Strain/Indicator: TA100, Metabolic Activation: NONE, Method: PREINCUBATION (EXPOSURE IN MEDIUM WITHOUT KCL)
  mutagenic call: active; positive
Test System: AMES SALMONELLA TYPHIMURIUM, Strain/Indicator: TA104, Metabolic Activation: NONE, Method: PREINCUBATION (EXPOSURE IN MEDIUM WITH KCL)
  mutagenic call: active; positive
Test System: AMES SALMONELLA TYPHIMURIUM, Strain/Indicator: TA104, Metabolic Activation: NONE, Method: PREINCUBATION (EXPOSURE IN MEDIUM WITHOUT KCL)
  mutagenic call: active; positive
Test System: CHINESE HAMSTER V-79, Strain/Indicator: V-79/6-THIOGUANINE, Metabolic Activation: NONE
  mutagenic call: active; positive

## CNC(=O)Oc1cccc2c1OC(C)(C)C2
End Point: CHROMOSOMAL ABERRATIONS, Test System: BONE MARROW, Species: MOUSE, Strain/Sex: SWISS/MALE, Route: GAVAGE
  mutagenic call: active; positive (structural changes)
End Point: IN VIVO MICRONUCLEUS, Test System: BONE MARROW POLYCHROMATIC ERYTHROCYTES, Species: MOUSE, Strain/Sex: KM/MALE, FEMALE, Route: IP INJECTION
  mutagenic call: inactive; negative
Test System: AMES SALMONELLA TYPHIMURIUM, Strain/Indicator: TA97A, Metabolic Activation: NONE, Method: STANDARD PLATE
  mutagenic call: inactive; negative
[1]
  mutagenic call: inactive; negative
[2]
  mutagenic call: inactive; negative
Test System: AMES SALMONELLA TYPHIMURIUM, Strain/Indicator: TA102, Metabolic Activation: NONE, Method: STANDARD PLATE
  mutagenic call: inactive; negative
Test System: AMES SALMONELLA TYPHIMURIUM, Strain/Indicator: TA104, Metabolic Activation: NONE, Method: STANDARD PLATE
  mutagenic call: inactive; negative
Test System: AMES SALMONELLA TYPHIMURIUM, Strain/Indicator: TA1535, Metabolic Activation: NONE, Method: STANDARD PLATE
  mutagenic call: inactive; negative

## COC(=O)c1cc(-c2ccc(N)c(C(=O)OC)c2)ccc1N
Test System: AMES SALMONELLA TYPHIMURIUM, Strain/Indicator: TA98(1,8-DNP6), Metabolic Activation: NONE, Method: STANDARD PLATE
  mutagenic call: inactive; negative
Test System: AMES SALMONELLA TYPHIMURIUM, Strain/Indicator: TA98(1,8-DNP6), Metabolic Activation: S-9, Method: STANDARD PLATE
  mutagenic call: active; positive
[1]
  mutagenic call: inactive; negative
Test System: AMES SALMONELLA TYPHIMURIUM, Strain/Indicator: TA98, Metabolic Activation: S-9, Method: STANDARD PLATE
  mutagenic call: active; positive
[2]
  mutagenic call: inactive; negative
Test System: AMES SALMONELLA TYPHIMURIUM, Strain/Indicator: TA100, Metabolic Activation: S-9, Method: STANDARD PLATE
  mutagenic call: inactive; negative

## O=[N+]([O-])c1cc2c(ccc3ccccc32)c2c1C=C[C@H](O)[C@H]2O
[3]
  mutagenic call: active; positive
Test System: AMES SALMONELLA TYPHIMURIUM, Strain/Indicator: TA98, Metabolic Activation: RAT, LIVER, S-9, AROCLOR 1254, Method: PREINCUBATION
  mutagenic call: inactive; negative
[4]
  mutagenic call: active; positive
Test System: AMES SALMONELLA TYPHIMURIUM, Strain/Indicator: TA100, Metabolic Activation: RAT, LIVER, S-9, AROCLOR 1254, Method: PREINCUBATION
  mutagenic call: active; positive

## Nc1c(Br)cc([N+](=O)[O-])cc1[N+](=O)[O-]
Test System: AMES SALMONELLA TYPHIMURIUM, Strain/Indicator: TA98, Metabolic Activation: HAMSTER, LIVER, S-9, AROCLOR 1254 (10%), Method: PREINCUBATION
  mutagenic call: active; positive
Test System: AMES SALMONELLA TYPHIMURIUM, Strain/Indicator: TA98, Metabolic Activation: HAMSTER, LIVER, S-9, AROCLOR 1254, Method: STANDARD PLATE
  mutagenic call: active; positive
[3]
  mutagenic call: active; positive
[1]
  mutagenic call: active; positive
Test System: AMES SALMONELLA TYPHIMURIUM, Strain/Indicator: TA98, Metabolic Activation: RAT, LIVER, S-9, AROCLOR 1254 (10%), Method: PREINCUBATION
  mutagenic call: active; positive
Test System: AMES SALMONELLA TYPHIMURIUM, Strain/Indicator: TA98, Metabolic Activation: RAT, LIVER, S-9, AROCLOR 1254, Method: STANDARD PLATE
  mutagenic call: active; positive
Test System: AMES SALMONELLA TYPHIMURIUM, Strain/Indicator: TA98, Metabolic Activation: RAT, LIVER, S-9, KANECHLOR 500, Method: PREINCUBATION
  mutagenic call: active; positive
Test System: AMES SALMONELLA TYPHIMURIUM, Strain/Indicator: TA100, Metabolic Activation: HAMSTER, LIVER, S-9, AROCLOR 1254 (10%), Method: PREINCUBATION
  mutagenic call: active; positive
Test System: AMES SALMONELLA TYPHIMURIUM, Strain/Indicator: TA100, Metabolic Activation: HAMSTER, LIVER, S-9, AROCLOR 1254, Method: STANDARD PLATE
  mutagenic call: active; positive
[4]
  mutagenic call: active; positive
[2]
  mutagenic call: active; positive
Test System: AMES SALMONELLA TYPHIMURIUM, Strain/Indicator: TA100, Metabolic Activation: RAT, LIVER, S-9, AROCLOR 1254 (10%), Method: PREINCUBATION
  mutagenic call: active; positive
Test System: AMES SALMONELLA TYPHIMURIUM, Strain/Indicator: TA100, Metabolic Activation: RAT, LIVER, S-9, AROCLOR 1254, Method: STANDARD PLATE
  mutagenic call: active; positive
Test System: AMES SALMONELLA TYPHIMURIUM, Strain/Indicator: TA100, Metabolic Activation: RAT, LIVER, S-9, KANECHLOR 500, Method: PREINCUBATION
  mutagenic call: active; positive
Test System: AMES SALMONELLA TYPHIMURIUM, Strain/Indicator: TA1535, Metabolic Activation: HAMSTER, LIVER, S-9, AROCLOR 1254 (10%), Method: PREINCUBATION
  mutagenic call: inactive; negative
Test System: AMES SALMONELLA TYPHIMURIUM, Strain/Indicator: TA1535, Metabolic Activation: NONE, Method: PREINCUBATION
  mutagenic call: inactive; negative
Test System: AMES SALMONELLA TYPHIMURIUM, Strain/Indicator: TA1535, Metabolic Activation: RAT, LIVER, S-9, AROCLOR 1254 (10%), Method: PREINCUBATION
  mutagenic call: inactive; negative
Test System: AMES SALMONELLA TYPHIMURIUM, Strain/Indicator: TA1537, Metabolic Activation: HAMSTER, LIVER, S-9, AROCLOR 1254 (10%), Method: PREINCUBATION
  mutagenic call: active; positive
Test System: AMES SALMONELLA TYPHIMURIUM, Strain/Indicator: TA1537, Metabolic Activation: HAMSTER, LIVER, S-9, AROCLOR 1254, Method: STANDARD PLATE
  mutagenic call: active; positive
Test System: AMES SALMONELLA TYPHIMURIUM, Strain/Indicator: TA1537, Metabolic Activation: NONE, Method: PREINCUBATION
  mutagenic call: active; positive
Test System: AMES SALMONELLA TYPHIMURIUM, Strain/Indicator: TA1537, Metabolic Activation: NONE, Method: STANDARD PLATE
  mutagenic call: active; positive
Test System: AMES SALMONELLA TYPHIMURIUM, Strain/Indicator: TA1537, Metabolic Activation: RAT, LIVER, S-9, AROCLOR 1254 (10%), Method: PREINCUBATION
  mutagenic call: active; positive
Test System: AMES SALMONELLA TYPHIMURIUM, Strain/Indicator: TA1537, Metabolic Activation: RAT, LIVER, S-9, AROCLOR 1254, Method: STANDARD PLATE
  mutagenic call: active; positive
Test System: AMES SALMONELLA TYPHIMURIUM, Strain/Indicator: TA1538, Metabolic Activation: HAMSTER, LIVER, S-9, AROCLOR 1254, Method: STANDARD PLATE
  mutagenic call: active; positive
Test System: AMES SALMONELLA TYPHIMURIUM, Strain/Indicator: TA1538, Metabolic Activation: NONE, Method: STANDARD PLATE
  mutagenic call: active; positive
Test System: AMES SALMONELLA TYPHIMURIUM, Strain/Indicator: TA1538, Metabolic Activation: RAT, LIVER, S-9, AROCLOR 1254, Method: STANDARD PLATE
  mutagenic call: active; positive
Test System: MOUSE LYMPHOMA, Strain/Indicator: L5178Y (TK+/TK-), Metabolic Activation: NONE, Method: SUSPENSION/PLATE
  mutagenic call: active; positive. reevaluation of results: positive
Test System: MOUSE LYMPHOMA, Strain/Indicator: L5178Y (TK+/TK-), Metabolic Activation: RAT, LIVER, S-9, AROCLOR 1254, Method: SUSPENSION/PLATE
  mutagenic call: active; positive. reevaluation of results: positive

Reference: PubChem BioAssay AID1259407 (Chemical Carcinogenesis Research Information System (CCRIS), 2018)
